Experimental data taken from patent US11166899B2, “Composition for external application containing a ceramide, a derivative thereof and an extract of Hibisci cortex” (AMOREPACIFIC CORPORATION, priority 2017, dated 2021).

The compounds below were run against T1, PPARα (Homo sapiens, UniProt Q07869) (assay: PPARα activation of single ceramide derivatives, PPRE-luciferase reporter in transfected HaCaT cells (Test Example 1)). Details: 10 ppm, 24 hours, HaCaT transfected with PPRE reporter and PPARα plasmids; DMSO control = 100.
T1 construct: expressed in transfected cells; host or cells: HaCaT (human keratinocyte cell line), transiently transfected
T1 sequence (Q07869 1-468): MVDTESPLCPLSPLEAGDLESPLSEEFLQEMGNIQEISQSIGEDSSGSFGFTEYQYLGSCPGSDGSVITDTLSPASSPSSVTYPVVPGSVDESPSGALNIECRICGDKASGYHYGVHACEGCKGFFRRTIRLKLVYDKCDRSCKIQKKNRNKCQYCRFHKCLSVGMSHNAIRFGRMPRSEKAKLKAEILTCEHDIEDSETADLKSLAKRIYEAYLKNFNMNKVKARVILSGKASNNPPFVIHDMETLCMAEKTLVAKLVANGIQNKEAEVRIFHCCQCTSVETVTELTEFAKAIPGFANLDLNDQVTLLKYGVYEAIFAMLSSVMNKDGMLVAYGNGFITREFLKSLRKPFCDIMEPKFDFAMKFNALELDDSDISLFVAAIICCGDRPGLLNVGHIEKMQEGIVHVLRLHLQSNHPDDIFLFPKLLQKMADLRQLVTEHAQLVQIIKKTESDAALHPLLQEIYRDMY
Type: cell-based
Excerpt: HaCaT, which is a human keratinocyte cell line, was subcultured in DMEM medium containing 10% fetal bovine serum, which is a phenol red-free medium, in order to eliminate the effect caused by the phenol red's estrogen. The following plasmids were used: a plasmid having PPARα, PPARβ/δ and PPARγ genes downstream of a universal promoter which is expressed in general culture conditions; a plasmid having a PPARs response element (“PPRE”) as a promoter, which is activated by binding with ligand-bound PPARs, and a firefly luciferase gene serving as a reporter downstream of the promoter; and a reference plasmid having a β-galactosidase gene bound to a universal promoter.
HaCaT cells were seeded into a 24-well plate at a density of 5×10^4 cells/well, cultured for 24 hours, and then transiently transfected with the plasmid genes. After 24 hours of culture, the cells were washed with phosphate buffered saline (PBS), and then treated with the compounds prepared in Reference Examples 2-1 to 2-4, and Reference Examples 3-11 to 3-15 at a concentration of 10 ppm. As a positive control group, the cells were treated with a previously-known PPARs ligand (PPARα ligand Wy-14643) at a concentration of 10 μM. As a negative control group, a group treated with DMSO used to dissolve the samples was used. After 24 hours of culture, the cells were washed with PBS, harvested, and measured for luciferase activity.
Results obtained by transfecting the HaCaT cell line with the PPRE promoter reporter plasmid and the PPARα expression plasmid, followed by treating the transfected cells with drugs, and measuring the luciferase activity of the cells

Question: With `CCCCCCCCCCCCCCCC(=O)N(CCO)CC(O)CN(CCO)C(=O)CCCCCCCCCCCCCCC` [Reference Example 2-1, 1,3-bis(N-(2-hydroxyethyl)-palmitoylamino)-2-hydroxypropane] as the compound, how does the “Relative to Control Group (%) (luciferase activity)” value (shortened to “Relative to Control Group (%)”) read?
Answer: Its value is 263%.

Question: Which “Relative to Control Group (%)” value does the source give for `CCCCCCCCCCCC(=O)N(CCO)CC(O)CN(CCO)C(=O)CCCCCCCCCCC` [Reference Example 2-2, 1,3-Bis(N-(2-Hydroxyethyl)-Lauroylamino)-2-Hydroxypropane] here?
Answer: The value was 270%.

Question: `CCCCCCCC/C=C\CCCCCCCC(=O)N(CCO)CC(O)CN(CCO)C(=O)CCCCCCC/C=C\CCCCCCCC` [Reference Example 2-3, 1,3-bis(N-(2-hydroxyethyl)-oleoylamino)-2-hydroxypropane] was tested. Which “Relative to Control Group (%)” value did it give?
Answer: Its value is 255%.

Question: For `CCCCCCCCCCCCCCCC(=O)N(CCO)CC(O)CNCCO` (stereo not shown) [Reference Example 2-4, N,N′-bis(2-hydroxyethyl)-N-palmitoyl-N′-1,3-diamino-2-hydroxypropane], which “Relative to Control Group (%)” value is on record?
Answer: The value was 260%.

Question: For `CCCCCCCCCCCCCCCCN(CC(C)OP(=O)([O-])[O-])C(=O)CCCCCCCCCCCCCCC.[Na+].[Na+]` (stereo not shown) [Reference Example 3-11, (N-hexadecyl-N-palmitoyl)-1-aminopropane-2-sodium phosphate], which “Relative to Control Group (%)” value is on record?
Answer: Its value is 272%.

Question: Which “Relative to Control Group (%)” value does the source give for `CCCCCCCCCCCCCCCCN(CC(C)(C)OP(=O)([O-])[O-])C(=O)CCCCCCCCCCCCCCC.[Na+].[Na+]` [Reference Example 3-12, (N-Hexadecyl-N-Palmitoyl)-1-Amino-2-Methylpropane-2-Sodium Phosphate] here?
Answer: Its value is 270%.

Question: For `CCCCCCCCCCCCCCCCN(CCOCCOP(=O)([O-])O)C(=O)CCCCCCCCCCCCCCC.[Na+]` [Reference Example 3-13, (N-Hexadecyl-N-Palmitoyl)-1-Amino-2-Ethoxyethane-2-Sodium Phosphate], which “Relative to Control Group (%)” value is on record?
Answer: Its value is 259%.

Question: `CCCCCCCC/C=C\CCCCCCCCN(CC(C)OS(=O)(=O)[O-])C(=O)CCCCCCCCCCCCCCC.[Na+]` (stereo not shown) [Reference Example 3-14, (N-oleyl-N-palmitoyl)-1-aminopropane-2-sodium sulfate] was tested. Which “Relative to Control Group (%)” value did it give?
Answer: The value was 278%.

Question: `CCCCCCCC/C=C\CCCCCCCCN(CC(C)(C)OS(=O)(=O)[O-])C(=O)CCCCCCCCCCCCCCC.[Na+]` [Reference Example 3-15, (N-Oleyl-N-Palmitoyl)-1-Amino-2-Methylpropane-2-Sodium Sulfate] was tested. Which “Relative to Control Group (%)” value did it give?
Answer: Its value is 269%.

Same assay, conditions: positive control, 10 μM, 24 hours, HaCaT; DMSO control = 100

Question: For `Cc1cccc(Nc2cc(Cl)nc(SCC(=O)O)n2)c1C` [Wy-14643, reference compound], which “Relative to Control Group (%)” value is on record?
Answer: Its value is 291%.
